Reference: patent US20230312550A1, “N-(2-(4-CYANOTHIAZOLIDIN-3-YL)-2-OXOETHYL)-QUINOLINE-4-CARBOXAMIDES” (AstraZeneca AB, priority 2020, published 2023)
≈ marks a conversion by molar mass, not a printed value.

Tests used:
hFAP (M39-A757) = hFAP (M39-A757) (Homo sapiens (Human), UniProt Q12884); assay: hFAP binding assay (surface plasmon resonance); conditions: SPR, 20° C.; for hFAP Binding assay k(off) / hFAP Binding assay k(on): single cycle kinetics; for Kd: n = 1 or geometric mean n = 2-4
FAP = FAP (Homo sapiens (Human), UniProt Q12884); assay: hFAP inhibition assay; format: biochemical; conditions: hFAP […], Ala-Pro-AMC 20 μM; n = 1 or geometric mean n = 2-3
Experimental: 384 low volume black plates (Greiner #784076) were used. 4 μL, 0.48 nM enzyme solution (100 mM Tris HCl, 100 mM NaCl, 0.05% Chaps, pH 7.4) was added to 40 nL compounds (in DMSO) at 10 CR, 3 fold dilution series from 50 μM FAC. Plates were incubated for 15 min at rt in dark. 4 μL, 40 μM substrate solution (100 mM Tris HCl, 100 mM NaCl, 0.05% Chaps, pH 7.4) was added to each well. Plates were centrifuged at 1000 rpm and incubated for 30 min at rt in dark. The plates were read on a PHERAstar® reader with excitation 340 nm and emission 460 nm. Data were analyzed in Genedata Screener®. IC50 values were determined by plotting % inhibition versus log compound concentration and using a one site dose response model.

Kinetic solubility = conditions: kinetic from dmso stock
Experimental: Kinetic solubility was measured as described in Comput Aided Mol Des 2015, 29, 795.

[1] = molecular target: human Fibroblast activation protein alpha (hFAP) (Homo sapiens (Human), UniProt Q12884); assay: hFAP inhibition assay (tight binders); format: biochemical; conditions: Ala-Pro-AMC 20 μM, n = 1 or geometric mean n = 2-6; also: hFAP 2.4 pM
Experimental: The plates were read on a PHERAstar® reader with excitation 340 nm and emission 460 nm. Data were analyzed in Genedata Screener®. IC50 values were determined by plotting % inhibition versus log compound concentration and using a one site dose response model.

[2] = Metabolic stability in rat hepatocytes (rHep); conditions: n = 1 or geometric mean of n = 2-3
[3] = molecular target: Prolyl endopeptidase, Prolyl Oligopeptidase (hPREP) (Homo sapiens (Human), UniProt P48147); assay: hPrep inhibition assay; format: biochemical; conditions: hPREP 0.6 nM, Z-Gly-Pro-amino-methylcoumarin 50 μM; read-out: PREP IC50
In short: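 Recombinant human PREP at 0.6 nM final with Z-Gly-Pro-AMC substrate at 50 μM final in Tris-HCl pH 7.5, NaCl, Triton X-100, glutathione; 15 min rt preincubation then 20 min rt reaction in dark. AMC fluorescence (ex 340/em 460 nm); IC50 from one-site dose-response fit of % inhibition.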

[4] = Metabolic stability in human liver microsomes (HLM); conditions: human
Experimental: Metabolic stability in HLM was measured as described in J Comput Aided Mol Des 2015, 29, 795.

[5] = Solubility, kinetic solubility, n = 1 or average of n = 2-3
[6] = HLM CLint, n = 1 or average of n = 2-3

Sequence of human Fibroblast activation protein alpha (hFAP) (Q12884 38-760): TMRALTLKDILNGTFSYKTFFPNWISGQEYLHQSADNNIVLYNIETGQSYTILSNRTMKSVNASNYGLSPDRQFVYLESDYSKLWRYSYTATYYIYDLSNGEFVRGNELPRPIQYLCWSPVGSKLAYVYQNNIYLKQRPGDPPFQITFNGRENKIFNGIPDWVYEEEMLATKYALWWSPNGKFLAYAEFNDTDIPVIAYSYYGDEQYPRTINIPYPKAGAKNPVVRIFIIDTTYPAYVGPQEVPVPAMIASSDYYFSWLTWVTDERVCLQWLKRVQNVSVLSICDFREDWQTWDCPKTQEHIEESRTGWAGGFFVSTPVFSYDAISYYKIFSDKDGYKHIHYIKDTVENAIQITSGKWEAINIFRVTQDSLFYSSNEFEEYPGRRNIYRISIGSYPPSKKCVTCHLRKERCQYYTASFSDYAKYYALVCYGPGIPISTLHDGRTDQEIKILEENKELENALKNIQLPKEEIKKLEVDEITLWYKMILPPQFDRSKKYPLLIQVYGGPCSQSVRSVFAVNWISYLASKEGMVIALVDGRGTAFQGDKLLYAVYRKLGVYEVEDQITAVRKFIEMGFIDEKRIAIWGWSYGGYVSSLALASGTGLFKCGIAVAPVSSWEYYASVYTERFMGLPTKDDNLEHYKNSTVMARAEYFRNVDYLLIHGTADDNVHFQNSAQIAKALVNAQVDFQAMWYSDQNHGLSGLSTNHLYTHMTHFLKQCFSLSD
Sequence of FAP (Q12884 38-760): as above
Sequence of hFAP (M39-A757) (Q12884 39-757): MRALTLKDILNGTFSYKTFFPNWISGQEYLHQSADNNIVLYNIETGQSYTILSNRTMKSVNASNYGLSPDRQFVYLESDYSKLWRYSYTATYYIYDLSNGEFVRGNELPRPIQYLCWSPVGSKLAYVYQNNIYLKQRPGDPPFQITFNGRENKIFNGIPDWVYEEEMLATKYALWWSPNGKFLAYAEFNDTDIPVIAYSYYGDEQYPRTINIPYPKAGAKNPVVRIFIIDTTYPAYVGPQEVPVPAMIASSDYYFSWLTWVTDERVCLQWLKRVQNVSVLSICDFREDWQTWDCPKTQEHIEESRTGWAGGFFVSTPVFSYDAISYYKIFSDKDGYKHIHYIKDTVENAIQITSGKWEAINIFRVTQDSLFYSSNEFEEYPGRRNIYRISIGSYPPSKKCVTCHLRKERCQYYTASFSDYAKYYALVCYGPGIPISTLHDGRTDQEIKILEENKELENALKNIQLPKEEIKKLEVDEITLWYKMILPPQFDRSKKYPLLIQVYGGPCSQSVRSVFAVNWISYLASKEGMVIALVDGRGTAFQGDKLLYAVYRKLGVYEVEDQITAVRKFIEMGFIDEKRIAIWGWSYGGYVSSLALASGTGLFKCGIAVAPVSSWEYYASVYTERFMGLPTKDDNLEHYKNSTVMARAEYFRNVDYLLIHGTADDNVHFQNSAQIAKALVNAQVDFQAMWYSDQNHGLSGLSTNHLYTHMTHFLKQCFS
Sequence of Prolyl endopeptidase, Prolyl Oligopeptidase (hPREP) (P48147 whole entry): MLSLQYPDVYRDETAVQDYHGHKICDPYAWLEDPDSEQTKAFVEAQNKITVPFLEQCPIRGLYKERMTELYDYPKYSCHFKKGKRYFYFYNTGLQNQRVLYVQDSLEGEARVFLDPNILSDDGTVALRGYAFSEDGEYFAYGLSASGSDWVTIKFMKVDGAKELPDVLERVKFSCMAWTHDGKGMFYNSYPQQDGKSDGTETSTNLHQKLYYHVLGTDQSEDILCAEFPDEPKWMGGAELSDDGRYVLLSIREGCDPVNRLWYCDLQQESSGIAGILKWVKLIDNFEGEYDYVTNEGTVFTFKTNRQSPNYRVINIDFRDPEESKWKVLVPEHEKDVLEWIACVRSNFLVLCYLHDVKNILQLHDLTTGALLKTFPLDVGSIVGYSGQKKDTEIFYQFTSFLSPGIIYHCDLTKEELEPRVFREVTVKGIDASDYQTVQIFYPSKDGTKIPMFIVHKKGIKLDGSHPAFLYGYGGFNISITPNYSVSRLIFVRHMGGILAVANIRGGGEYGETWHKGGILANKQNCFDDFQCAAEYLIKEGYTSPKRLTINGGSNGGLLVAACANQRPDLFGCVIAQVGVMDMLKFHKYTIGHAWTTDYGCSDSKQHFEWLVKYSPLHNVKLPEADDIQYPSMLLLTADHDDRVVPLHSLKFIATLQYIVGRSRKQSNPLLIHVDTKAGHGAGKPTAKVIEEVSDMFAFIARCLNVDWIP

| SMILES | hFAP Binding assay k(off) (hFAP (M39-A757)) [s⁻¹] | hFAP Binding assay k(on) (hFAP (M39-A757)) [M⁻¹ s⁻¹] | Kd (hFAP (M39-A757)) [nM] | IC50 (FAP) [nM] | solubility (Kinetic solubility; [5]) [µM] | IC50 [1] [nM] | rHep CLint [2] [μL/min/1E6] | IC50 [3] [nM] | microsomal CLint [4, 6] [µL/min/mg] | solubility (Kinetic solubility) [µM] | microsomal CLint [4] [µL/min/mg] |
| --- | --- | --- | --- | --- | --- | --- | --- | --- | --- | --- | --- |
| N#C[C@@H]1CSCN1C(=O)CNC(=O)c1ccnc2ccc(N3C[C@H](F)[C@@H](F)C3)cc12 [Example 213, N-(2-((R)-4-Cyanothiazolidin-3-yl)-2-oxoethyl)-6-((3S,4S)-3,4-difluoro-pyrrolidin-1-yl)quinoline-4-carboxamide] | 0.00017 | 4400000 | 0.039 | 0.18 | 100 (≈ 43.1 µg/mL) | 0.039 | 19 | 470 | 31 |  |  |
| N#C[C@@H]1CSCN1C(=O)CNC(=O)c1ccnc2ccc(-c3ccc(F)cn3)cc12 [Example 125, (R)—N-(2-(4-Cyanothiazolidin-3-yl)-2-oxoethyl)-6-(5-fluoropyridin-2-yl)quinoline-4-carboxamide] | 0.00014 | 3000000 | 0.048 | 0.21 | 38 (≈ 16 µg/mL) | 0.046 | 7.4 | 120 | 14 |  |  |
| N#C[C@@H]1CSCN1C(=O)CNC(=O)c1ccnc2ccc(N3CCC34CCC4)cc12 [Example 19, (R)—N-(2-(4-Cyanothiazolidin-3-yl)-2-oxoethyl)-6-(1-azaspiro[3.3]heptan-1-yl)quinoline-4-carboxamide] | 0.000066 | 430000 | 0.15 | 0.66 |  | 0.38 | 63 | 160 |  | 480 (≈ 202 µg/mL) | 190 |
| N#C[C@@H]1CSCN1C(=O)CNC(=O)c1ccnc2ccc(N3CCCC[C@H]3CF)cc12 [Example 45, N-(2-((R)-4-Cyanothiazolidin-3-yl)-2-oxoethyl)-6-((S)-2-(fluoromethyl)-piperidin-1-yl)quinoline-4-carboxamide] | 0.00018 | 5400000 | 0.048 | 0.2 | 340 (≈ 150 µg/mL) | 0.14 | 160 | 190 | 260 |  |  |
| N#C[C@@H]1CSCN1C(=O)CNC(=O)c1ccnc2ccc(N3CCCC4(CC4)C3)cc12 [Example 46, (R)—N-(2-(4-Cyanothiazolidin-3-yl)-2-oxoethyl)-6-(5-azaspiro[2.5]octan-5-yl)quinoline-4-carboxamide] | 0.000062 | 3000000 | 0.02 | 0.29 |  | 0.082 | 72 | 110 |  | 190 (≈ 82.8 µg/mL) | 190 |

Continued by falling Kd (hFAP (M39-A757)), values first:

| hFAP Binding assay k(off) (hFAP (M39-A757)) [s⁻¹] | hFAP Binding assay k(on) (hFAP (M39-A757)) [M⁻¹ s⁻¹] | Kd (hFAP (M39-A757)) [nM] | IC50 (FAP) [nM] | solubility (Kinetic solubility; [5]) [µM] | IC50 [1] [nM] | rHep CLint [2] [μL/min/1E6] | IC50 [3] [nM] | microsomal CLint [4, 6] [µL/min/mg] | SMILES | solubility (Kinetic solubility) [µM] | microsomal CLint [4] [µL/min/mg] |
| --- | --- | --- | --- | --- | --- | --- | --- | --- | --- | --- | --- |
| 0.000025 | 740000 | 0.034 | 0.38 | > 1000 | 0.35 | 2.3 | 380 | 8.6 | N#C[C@@H]1CSCN1C(=O)CNC(=O)c1ccnc2ccc(N3CCOCC3)c(Cl)c12 [Example 101, (R)-5-Chloro-N-(2-(4-cyanothiazolidin-3-yl)-2-oxoethyl)-6-morpholino-quinoline-4-carboxamide] |  |  |
| 0.00024 | 9700000 | 0.031 | 0.22 | 180 (≈ 79.1 µg/mL) | 0.1 | 14 | 760 | 45 | N#C[C@@H]1CSCN1C(=O)CNC(=O)c1ccnc2ccc(N3CC(F)(C4CC4)C3)cc12 [Example 31, (R)—N-(2-(4-Cyanothiazolidin-3-yl)-2-oxoethyl)-6-(3-cyclopropyl-3-fluoroazetidin-1-yl)quinoline-4-carboxamide] |  |  |
